From ChEMBL document CHEMBL4602605, “Fluoroquinolones structural and medicinal developments (2013-2018): Where are we now?” (Bioorg Med Chem, 2019)
Values after ≈ are worked out from the molar mass of the structure shown.

Key:
Format in all cases: functional
[1] = tested on: Escherichia coli; experiment: Antimicrobial activity against Escherichia coli ATCC 25922 by CLSI method
[2] = tested on: Staphylococcus aureus; experiment: Antimicrobial activity against Staphylococcus aureus ATCC 25923 by CLSI method
[3] = tested on: Escherichia coli; experiment: Antimicrobial activity against penicillin-resistant Escherichia coli at < 1 ug/ml relative to control
[4] = tested on: Enterococcus faecalis; experiment: Antimicrobial activity against Enterococcus faecalis ATCC 29212 incubated for 24 hrs by serial dilution method; conditions: ATCC 29212, 24 h
[5] = tested on: Staphylococcus aureus; experiment: Antimicrobial activity against methicillin-susceptible Staphylococcus aureus ATCC 29213 incubated for 24 hrs by serial dilution method; conditions: ATCC 29213, 24 h
[6] = tested on: Staphylococcus aureus; experiment: Antimicrobial activity against methicillin-resistant Staphylococcus aureus ATCC 33591 incubated for 24 hrs by serial dilution method; conditions: ATCC 33591, 24 h
[7] = tested on: Escherichia coli; experiment: Antimicrobial activity against Escherichia coli ATCC 35218 incubated for 24 hrs by serial dilution method; conditions: ATCC 35218, 24 h
[8] = tested on: Klebsiella pneumoniae; experiment: Antimicrobial activity against Klebsiella pneumoniae ATCC 35657 incubated for 24 hrs by serial dilution method; conditions: ATCC 35657, 24 h
[9] = tested on: Moraxella catarrhalis; experiment: Antimicrobial activity against Moraxella catarrhalis ATCC 25238 incubated for 24 hrs by serial dilution method; conditions: ATCC 25238, 24 h
[10] = tested on: A549; experiment: Growth inhibition of human A549 cells at 10 uM incubated for 48 hrs by MTT assay relative to control; conditions: A549, 48 h, read-out: GI
[11] = tested on: HCT-116; experiment: Growth inhibition of human HCT116 cells at 10 uM incubated for 48 hrs by MTT assay relative to control; conditions: HCT-116, 48 h, read-out: GI
[12] = tested on: HeLa; experiment: Growth inhibition of human HeLa cells at 10 uM incubated for 48 hrs by MTT assay relative to control; conditions: read-out: GI
[13] = tested on: PANC-1; experiment: Growth inhibition of human PANC1 cells at 10 uM incubated for 48 hrs by MTT assay; conditions: PANC-1, 48 h, read-out: GI
[14] = tested on: Escherichia coli; experiment: Antimicrobial activity against Escherichia coli ATCC 9637 incubated for 24 hrs by CLSI-based broth microdilution method; conditions: W ATCC 9637, 24 h
[15] = tested on: Pseudomonas aeruginosa; experiment: Antimicrobial activity against Pseudomonas aeruginosa ATCC BAA-427 incubated for 24 hrs by CLSI-based broth microdilution method; conditions: ATCC BAA-427, 24 h
[16] = tested on: Staphylococcus aureus; experiment: Antimicrobial activity against methicillin-resistant Staphylococcus aureus ATCC 700699 incubated for 24 hrs by CLSI-based broth microdilution method; conditions: ATCC 700699, 24 h
[17] = tested on: Staphylococcus aureus; experiment: Antimicrobial activity against gentamicin-resistant Staphylococcus aureus ATCC 33592 incubated for 24 hrs by CLSI-based broth microdilution method; conditions: ATCC 33592, 24 h
[18] = tested on: Klebsiella pneumoniae; experiment: Antimicrobial activity against Klebsiella pneumoniae ATCC 27736 incubated for 24 hrs by CLSI-based broth microdilution method; conditions: ATCC 27736, 24 h
[19] = tested on: Staphylococcus aureus; experiment: Antimicrobial activity against Staphylococcus aureus ATCC 29213 incubated for 24 hrs by CLSI-based dilution method; conditions: ATCC 29213, 24 h
[20] = tested on: Staphylococcus aureus; experiment: Antimicrobial activity against Staphylococcus aureus ATCC 25923 incubated for 24 hrs by CLSI-based dilution method; conditions: ATCC 25923, 24 h
[21] = tested on: Pseudomonas aeruginosa; experiment: Antimicrobial activity against Pseudomonas aeruginosa ATCC 43288 incubated for 18 to 24 hrs by microbroth dilution method
[22] = tested on: Yersinia pseudotuberculosis; experiment: Antimicrobial activity against Yersinia pseudotuberculosis ATCC 911 incubated for 18 to 24 hrs by microbroth dilution method
[23] = tested on: Staphylococcus aureus; experiment: Antimicrobial activity against Staphylococcus aureus ATCC 25923 incubated for 18 to 24 hrs by microbroth dilution method
[24] = tested on: Enterococcus faecalis; experiment: Antimicrobial activity against Enterococcus faecalis ATCC 29212 incubated for 18 to 24 hrs by microbroth dilution method
[25] = tested on: Bacillus cereus; experiment: Antimicrobial activity against Bacillus cereus 709 Roma incubated for 18 to 24 hrs by microbroth dilution method
[26] = tested on: Mycolicibacterium smegmatis; experiment: Antimicrobial activity against Mycobacterium smegmatis ATCC 607 incubated for 48 to 72 hrs by microbroth dilution method
[27] = tested on: Escherichia coli; experiment: Antimicrobial activity against Escherichia coli ATCC 25922 incubated for 18 to 24 hrs by microbroth dilution method
[28] = tested on: Mycobacterium tuberculosis; experiment: Antimicrobial activity against Mycobacterium tuberculosis H37Rv incubated for 10 days by microbroth dilution method; conditions: 240 h
[29] = tested on: Mycobacterium avium; experiment: Antimicrobial activity against Mycobacterium avium incubated for 10 days by microbroth dilution method; conditions: 240 h
[30] = tested on: Mycolicibacter terrae; experiment: Antimicrobial activity against Mycobacterium terrae incubated for 10 days by microbroth dilution method; conditions: 240 h

In the case of O=C(O)c1cn(C2CC2)c2cc(N3CCN(C(=O)c4ccccc4)CC3)c(F)cc2c1=O, the MIC [1] is reported as 2 µg/mL (≈ 4.59 µM) and the MIC [2] is reported as 1 µg/mL (≈ 2.3 µM).

O=C(O)c1cn(C2CC2)c2cc(N3CCN(Cc4ccccc4)CC3)c(F)cc2c1=O showed an MIC [1] of 0.25 µg/mL (≈ 0.593 µM) and an MIC [2] of 0.25 µg/mL (≈ 0.593 µM).

For CCCOC(=O)c1cn(C2CC2)c2cc(N3CCNCC3)c(F)cc2c1=O, the “inhibition (INH)” value [3] was >60%.

In the case of CCN(CC)Cc1cn(-c2cc3c(cc2F)c(=O)c(C(=O)NO)cn3C2CC2)nn1, the MIC [4] is reported as 64 µg/mL (≈ 154 µM), the MIC [5] is reported as 64 µg/mL (≈ 154 µM) and the MIC [6] is reported as > 64 µg/mL. The MIC [7] was 16 µg/mL (≈ 38.6 µM), the MIC [8] was 8 µg/mL (≈ 19.3 µM) and the MIC [9] was 16 µg/mL (≈ 38.6 µM). The inhibition of growth at 10 µM [10] was 40%, the inhibition of growth at 10 µM [11] was 30% and the inhibition of growth at 10 µM [12] was 10%. It also gave an inhibition of growth at 10 µM [13] of 30%.

CC(C)NCc1cn(-c2cc3c(cc2F)c(=O)c(C(=O)NO)cn3C2CC2)nn1 was tested, and the MIC [4] was > 64 µg/mL, the MIC [5] was > 64 µg/mL and the MIC [6] was > 64 µg/mL. For the same molecule, the MIC [7] was > 64 µg/mL, the MIC [8] was > 64 µg/mL and the MIC [9] was > 64 µg/mL. It also gave an inhibition of growth at 10 µM [10] of 35%, an inhibition of growth at 10 µM [11] of 30% and an inhibition of growth at 10 µM [12] of 30%. It also gave an inhibition of growth at 10 µM [13] of 15%.

CCn1cc(C(=O)O)c(=O)c2cc(F)c(-n3cc(CO[C@H]4O[C@H](COC(C)=O)[C@@H](OC(C)=O)[C@H](OC(C)=O)[C@H]4OC(C)=O)nn3)c(F)c21 was tested, and the MIC [14] was > 50 µg/mL, the MIC [15] was > 50 µg/mL and the MIC [16] was > 50 µg/mL. The MIC [17] was > 50 µg/mL, the MIC [18] was > 50 µg/mL and the MIC [19] was > 50 µg/mL. For the same molecule, the MIC [20] was > 50 µg/mL.

For CCn1cc(C(=O)O)c(=O)c2cc(F)c(-n3cc(CO[C@H]4O[C@H](COC(C)=O)[C@@H](OC(C)=O)[C@H](OC(C)=O)[C@H]4NC(C)=O)nn3)c(F)c21, the MIC [14] was 12.5 µg/mL (≈ 18.4 µM), the MIC [15] was > 50 µg/mL and the MIC [16] was > 50 µg/mL. The MIC [17] was 6.25 µg/mL (≈ 9.2 µM), the MIC [18] was 6.25 µg/mL (≈ 9.2 µM) and the MIC [19] was 6.25 µg/mL (≈ 9.2 µM). The MIC [20] was 6.25 µg/mL (≈ 9.2 µM).

CN(C)Cc1cn(-c2cc3c(cc2F)c(=O)c(C(=O)NO)cn3C2CC2)nn1 was tested, and the MIC [4] was > 64 µg/mL, the MIC [5] was > 64 µg/mL and the MIC [6] was > 64 µg/mL. The MIC [7] was > 64 µg/mL, the MIC [8] was > 64 µg/mL and the MIC [9] was > 64 µg/mL. The inhibition of growth at 10 µM [10] was 30%, the inhibition of growth at 10 µM [11] was 15% and the inhibition of growth at 10 µM [12] was 23%. The inhibition of growth at 10 µM [13] was 20%.

With O=C(O)c1cn(C2CC2)c2cc(N3CCN(Cn4nc(CN5CCN(c6ccc([N+](=O)[O-])cc6)CC5)oc4=S)CC3)c(F)cc2c1=O the MIC [21] was 0.03 µg/mL (≈ 0.0451 µM), the MIC [22] was 0.03 µg/mL (≈ 0.0451 µM) and the MIC [23] was 0.03 µg/mL (≈ 0.0451 µM). For the same molecule, the MIC [24] was 0.03 µg/mL (≈ 0.0451 µM), the MIC [25] was 0.03 µg/mL (≈ 0.0451 µM) and the MIC [26] was 0.03 µg/mL (≈ 0.0451 µM). The MIC [27] was 0.03 µg/mL (≈ 0.0451 µM).

With CCn1cc(C(=O)O)c(=O)c2cc(F)c(N3CCN(Cn4nc(CN5CCN(c6ccc([N+](=O)[O-])cc6)CC5)oc4=S)CC3)cc21 the MIC [21] was < 0.25 µg/mL, the MIC [22] was < 0.25 µg/mL and the MIC [23] was 0.25 µg/mL (≈ 0.383 µM). For the same molecule, the MIC [24] was < 0.25 µg/mL, the MIC [25] was < 0.25 µg/mL and the MIC [26] was 1 µg/mL (≈ 1.53 µM). For the same molecule, the MIC [27] was 0.03 µg/mL (≈ 0.046 µM).

In the case of CCn1cc(C(=O)O)c(=O)c2cc(F)c(-n3cc(CO[C@H]4OC[C@@H](OC(C)=O)[C@@H](OC(C)=O)[C@H]4OC(C)=O)nn3)c(F)c21, the MIC [14] is reported as 6.25 µg/mL (≈ 10.3 µM), the MIC [15] is reported as > 50 µg/mL and the MIC [16] is reported as > 50 µg/mL. For the same molecule, the MIC [17] was 3.12 µg/mL (≈ 5.13 µM), the MIC [18] was 3.12 µg/mL (≈ 5.13 µM) and the MIC [19] was 3.12 µg/mL (≈ 5.13 µM). For the same molecule, the MIC [20] was 3.12 µg/mL (≈ 5.13 µM).

CCCCCOC(=O)c1cn(C2CC2)c2cc(N3CCNCC3)c(F)cc2c1=O was tested, and the “inhibition (INH)” value [3] was >60%.

For CCn1cc(C(=O)O)c(=O)c2cc(F)c(N3CCN(Cn4nc(CN5CCN(c6ccc([N+](=O)[O-])cc6)CC5)n(-c5ccc(F)cc5)c4=S)CC3)cc21, the MIC [21] was 0.48 µg/mL (≈ 0.644 µM), the MIC [22] was 0.24 µg/mL (≈ 0.322 µM) and the MIC [23] was 0.48 µg/mL (≈ 0.644 µM). It also gave an MIC [24] of 0.25 µg/mL (≈ 0.335 µM), an MIC [25] of 0.24 µg/mL (≈ 0.322 µM) and an MIC [26] of 0.244 µg/mL (≈ 0.327 µM). The MIC [27] was < 0.03 µg/mL.

With CCn1cc(C(=O)O)c(=O)c2cc(F)c(-c3cc4cc(C(C)(C)C)cc(C(C)(C)C)c4oc3=O)cc21 the MIC [28] was 3.1 µg/mL (≈ 6.31 µM), the MIC [29] was 3.1 µg/mL (≈ 6.31 µM) and the MIC [30] was 1.5 µg/mL (≈ 3.05 µM).

In the case of CCn1cc(C(=O)O)c(=O)c2cc(F)c(-n3cc(CO[C@H]4O[C@H](COC(C)=O)[C@@H](OC(C)=O)[C@H](OC(C)=O)[C@@H]4OC(C)=O)nn3)c(F)c21, the MIC [14] is reported as 50 µg/mL (≈ 73.5 µM), the MIC [15] is reported as > 50 µg/mL and the MIC [16] is reported as > 50 µg/mL. It also gave an MIC [17] of 12.5 µg/mL (≈ 18.4 µM), an MIC [18] of 25 µg/mL (≈ 36.7 µM) and an MIC [19] of 12.5 µg/mL (≈ 18.4 µM). The MIC [20] was 12.5 µg/mL (≈ 18.4 µM).
